Data on seven compounds can be found in ChEMBL document CHEMBL1130203, “Novel fluoroquinolone antibacterial agents containing oxime-substituted (aminomethyl)pyrrolidines: synthesis and antibacterial activity of 7-(4-(aminomethyl)-3-(methoxyimino)pyrrolidin-1-yl)-1-cyclopropyl-6- fluoro-4-oxo-1,4-dihydro[1,8]naphthyridine-3-carboxylic acid (LB20304)” (J Med Chem, 1997).

Molecules are shown by their SMILES. In brackets after ≈: the same amount, converted by molar mass.

Holding throughout (format): functional
In experiment [1] the test system is Staphylococcus epidermidis. Put plainly: Minimum inhibitory concentration (MIC) against Staphylococcus epidermidis 178. Particulars: Staphylococcus epidermidis; read-out: MIC.
The subject of experiment [2] is Acinetobacter calcoaceticus. Put plainly: Minimum inhibitory concentration (MIC) against Acinetobacter calcoaceticus 15473. The settings on record: Acinetobacter calcoaceticus; read-out: MIC.
Another experiment deals with Klebsiella aerogenes. Put plainly: Minimum inhibitory concentration (MIC) against Klebsiella aerogenes 1082E. Particulars: Klebsiella aerogenes; read-out: MIC.
A further experiment deals with Bacillus subtilis. Put plainly: Minimum inhibitory concentration (MIC) against Bacillus subtilis ATCC 6633.
The next experiment has as its system Pseudomonas aeruginosa. Put plainly: Minimum inhibitory concentration (MIC) against Pseudomonas aeruginosa 1912E. Particulars: Pseudomonas aeruginosa; read-out: MIC.
In another experiment the test system is Enterobacter cloacae. As to the kind of experiment: Minimum inhibitory concentration (MIC) against Enterobacter cloacae P99.
Another experiment relates to Enterococcus faecalis. Put plainly: Minimum inhibitory concentration (MIC) against Streptococcus faecalis 29212. The settings on record: Enterococcus faecalis; read-out: MIC.
The test system of experiment [3] is Escherichia coli. As to the kind of experiment: Minimum inhibitory concentration (MIC) against Escherichia coli TEM9 2639E. Particulars: Escherichia coli; read-out: MIC.
In experiment [4] the test system is Escherichia coli. As to the kind of experiment: Minimum inhibitory concentration (MIC) against Escherichia coli 10536.
For experiment [5], the system named is Staphylococcus aureus. Put plainly: Minimum inhibitory concentration (MIC) against Staphylococcus aureus giorgio.
In experiment [6] the test system is Staphylococcus epidermidis. Put plainly: Minimum inhibitory concentration (MIC) against Staphylococcus epidermidis 887E.
Experiment [7] concerns Staphylococcus aureus. Put plainly: Minimum inhibitory concentration (MIC) against Staphylococcus aureus 241. The settings on record: Staphylococcus aureus; read-out: MIC.
The test system of experiment [8] is Escherichia coli. As to the kind of experiment: Minimum inhibitory concentration (MIC) against Escherichia coli 3190Y.
For experiment [9], the system named is Staphylococcus aureus. As to the kind of experiment: Minimum inhibitory concentration (MIC) against Staphylococcus aureus 6538p.

Regarding `CC(C)O/N=C1\CN(c2nc3c(cc2F)c(=O)c(C(=O)O)cn3C2CC2)CC1CN` (stereo not drawn), the MIC – broadly, the least concentration at which growth counts as inhibited – is 1 mg/L (≈ 2.4 µM) in [1]; 0.031 mg/L (≈ 0.0743 µM) in experiment [2]; 0.13 mg/L (≈ 0.311 µM) in the experiment on Klebsiella aerogenes; less than 0.008 mg/L in the experiment with Bacillus subtilis; 1 mg/L (≈ 2.4 µM) with Pseudomonas aeruginosa; less than 0.008 mg/L with Enterobacter cloacae. For the same compound, the minimal inhibitory concentration (MIC) in the experiment with Enterococcus faecalis was 0.063 mg/L (≈ 0.151 µM); with Escherichia coli [3], 0.063 mg/L (≈ 0.151 µM); in the experiment on Escherichia coli [4] it was less than 0.008 mg/L; against Staphylococcus aureus [5], less than 0.008 mg/L; in [6] it was less than 0.008 mg/L; in the experiment with Staphylococcus aureus [7] it was 2 mg/L (≈ 4.79 µM). Also, the minimal inhibitory concentration (MIC) in the experiment with Escherichia coli [8] and against Staphylococcus aureus [9] was less than 0.008 mg/L throughout.
Turning to `NCC1CN(c2nc3c(cc2F)c(=O)c(C(=O)O)cn3C2CC2)C/C1=N\Oc1ccccc1` (stereo not drawn), the minimum inhibitory concentration (MIC) in experiment [1] is 16 mg/L (≈ 35.4 µM); in experiment [2] it was 0.016 mg/L (≈ 0.0354 µM); in the experiment on Klebsiella aerogenes, 0.13 mg/L (≈ 0.288 µM); against Bacillus subtilis, less than 0.008 mg/L; with Pseudomonas aeruginosa, 2 mg/L (≈ 4.43 µM); against Enterobacter cloacae it was 0.031 mg/L (≈ 0.0687 µM). The minimal inhibitory concentration (MIC) in the experiment on Enterococcus faecalis is 0.13 mg/L (≈ 0.288 µM); in the experiment on Escherichia coli [3] it was 0.13 mg/L (≈ 0.288 µM); in the experiment with Escherichia coli [4] it was 0.031 mg/L (≈ 0.0687 µM); against Staphylococcus aureus [5], 0.016 mg/L (≈ 0.0354 µM); in experiment [6] it was less than 0.008 mg/L; in the experiment with Staphylococcus aureus [7], less than 0.008 mg/L. For the same compound, the MIC in the experiment on Escherichia coli [8] and with Staphylococcus aureus [9] was 0.016 mg/L (≈ 0.0354 µM) in each case.
As to `CO/N=C1\CN(c2c(F)cc3c(=O)c(C(=O)O)cn(C4CC4)c3c2OC)CC1CN` (stereo not drawn), the minimal inhibitory concentration (MIC) in experiment [1] was 1 mg/L (≈ 2.39 µM); in [2], 0.25 mg/L (≈ 0.597 µM); in the experiment on Klebsiella aerogenes, 0.25 mg/L (≈ 0.597 µM); in the experiment with Bacillus subtilis, 0.031 mg/L (≈ 0.0741 µM); with Pseudomonas aeruginosa it was 2 mg/L (≈ 4.78 µM); against Enterobacter cloacae it was 0.063 mg/L (≈ 0.151 µM). Also, the MIC came to 0.063 mg/L (≈ 0.151 µM) in the experiment with Enterococcus faecalis; 0.25 mg/L (≈ 0.597 µM) with Escherichia coli [3]; 0.063 mg/L (≈ 0.151 µM) in the experiment with Escherichia coli [4]; 0.016 mg/L (≈ 0.0382 µM) in the experiment on Staphylococcus aureus [5]; 0.031 mg/L (≈ 0.0741 µM) in [6]; 1 mg/L (≈ 2.39 µM) in the experiment on Staphylococcus aureus [7]. Besides, the MIC in the experiment with Escherichia coli [8] and with Staphylococcus aureus [9] was 0.031 mg/L (≈ 0.0741 µM) in each case.
For `CO/N=C1\CN(c2nc3c(cc2F)c(=O)c(C(=O)O)cn3C2CC2)CC1CN(C)C` (stereo not drawn), the minimal inhibitory concentration (MIC) is 16 mg/L (≈ 38.3 µM) in [1]; 0.5 mg/L (≈ 1.2 µM) in experiment [2]; 0.016 mg/L (≈ 0.0383 µM) in the experiment with Klebsiella aerogenes; 0.016 mg/L (≈ 0.0383 µM) against Bacillus subtilis; 16 mg/L (≈ 38.3 µM) with Pseudomonas aeruginosa; 0.13 mg/L (≈ 0.311 µM) against Enterobacter cloacae. Besides, the MIC in the experiment on Enterococcus faecalis amounted to 1 mg/L (≈ 2.4 µM); in the experiment with Escherichia coli [3], 1 mg/L (≈ 2.4 µM); with Escherichia coli [4] it was 0.13 mg/L (≈ 0.311 µM); against Staphylococcus aureus [5], 0.13 mg/L (≈ 0.311 µM); in [6], 0.13 mg/L (≈ 0.311 µM); in the experiment on Staphylococcus aureus [7], 32 mg/L (≈ 76.7 µM). Moreover, the MIC in the experiment on Escherichia coli [8] is 0.063 mg/L (≈ 0.151 µM); with Staphylococcus aureus [9], 0.13 mg/L (≈ 0.311 µM).
For the compound `CC(C)(C)O/N=C1\CN(c2nc3c(cc2F)c(=O)c(C(=O)O)cn3C2CC2)CC1CN` (stereo not drawn), the MIC is 1 mg/L (≈ 2.32 µM) in [1]; 0.031 mg/L (≈ 0.0718 µM) in experiment [2]; 0.25 mg/L (≈ 0.579 µM) in the experiment on Klebsiella aerogenes; less than 0.008 mg/L in the experiment with Bacillus subtilis; 2 mg/L (≈ 4.64 µM) in the experiment on Pseudomonas aeruginosa; not above 0.008 mg/L in the experiment with Enterobacter cloacae. In addition, the MIC in the experiment on Enterococcus faecalis was 0.063 mg/L (≈ 0.146 µM); with Escherichia coli [3], 0.063 mg/L (≈ 0.146 µM); against Escherichia coli [4] it was not above 0.008 mg/L; with Staphylococcus aureus [5] it was less than 0.008 mg/L; in [6] it was less than 0.008 mg/L; with Staphylococcus aureus [7] it was 1 mg/L (≈ 2.32 µM). For the same compound, the minimum inhibitory concentration (MIC) against Escherichia coli [8] stood at 0.016 mg/L (≈ 0.0371 µM); in the experiment with Staphylococcus aureus [9], 0.008 mg/L (≈ 0.0185 µM).
Turning to `NCC1CN(c2nc3c(cc2F)c(=O)c(C(=O)O)cn3C2CC2)C/C1=N\OCc1ccccc1` (stereo not drawn), the minimal inhibitory concentration (MIC) was 2 mg/L (≈ 4.3 µM) in [1]; less than 0.008 mg/L in [2]; 0.063 mg/L (≈ 0.135 µM) with Klebsiella aerogenes; less than 0.008 mg/L in the experiment with Bacillus subtilis; 1 mg/L (≈ 2.15 µM) in the experiment with Pseudomonas aeruginosa; less than 0.008 mg/L in the experiment with Enterobacter cloacae. Also, the MIC with Enterococcus faecalis was 0.031 mg/L (≈ 0.0666 µM); in the experiment with Escherichia coli [3] it was 0.063 mg/L (≈ 0.135 µM); in the experiment with Escherichia coli [4], less than 0.008 mg/L; against Staphylococcus aureus [5], less than 0.008 mg/L; in experiment [6] it was less than 0.008 mg/L; in the experiment with Staphylococcus aureus [7] it was 2 mg/L (≈ 4.3 µM). The minimum inhibitory concentration (MIC) in the experiment on Escherichia coli [8] and against Staphylococcus aureus [9] was less than 0.008 mg/L in each case.
With `CCn1cc(C(=O)O)c(=O)c2cc(F)c(N3C/C(=N\OC)C(CN)C3)c(F)c21` (stereo not drawn), the MIC in experiment [1] was 4 mg/L (≈ 10.1 µM); in experiment [2], 1 mg/L (≈ 2.54 µM); in the experiment on Klebsiella aerogenes, 0.5 mg/L (≈ 1.27 µM); in the experiment on Bacillus subtilis, 0.031 mg/L (≈ 0.0786 µM); with Pseudomonas aeruginosa, 2 mg/L (≈ 5.07 µM); against Enterobacter cloacae, 0.13 mg/L (≈ 0.33 µM). Besides, the MIC in the experiment on Enterococcus faecalis amounted to 0.25 mg/L (≈ 0.634 µM); with Escherichia coli [3] it was 0.5 mg/L (≈ 1.27 µM); with Escherichia coli [4], 0.063 mg/L (≈ 0.16 µM); in the experiment with Staphylococcus aureus [5], 0.063 mg/L (≈ 0.16 µM); in experiment [6] it was 0.063 mg/L (≈ 0.16 µM); in the experiment on Staphylococcus aureus [7] it was 4 mg/L (≈ 10.1 µM). In addition, the MIC with Escherichia coli [8] is 0.063 mg/L (≈ 0.16 µM); in the experiment on Staphylococcus aureus [9], 0.031 mg/L (≈ 0.0786 µM).
